Assay results from the supplement of paper PMC10307832.

Tests used:
Assay in all cases: relative viability (nuclei count vs DMSO), 5 days (fraction); higher = more cells survive
Saracatinib = compound: CN1CCN(CCOc2cc(OC3CCOCC3)c3c(Nc4c(Cl)ccc5c4OCO5)ncnc3c2)CC1 [Saracatinib]
How it was run: (§1)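 Following overnight incubation at 37 °C, lung cancer cell lines in 1536-well plates were pinned with five library-drug doses (not always all listed) in √10 steps on vehicle-anchored plates. The cells then spent 5 days without medium change before a combined fix, permeabilisation and Hoechst stain, 4× imaging and MetaXpress nuclear counts. Viability is the treated-to-vehicle ratio of nuclei, taken as the median across plates. Only plates with control CV below 25% and at least one doubling passed.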

Nilotinib = compound: Cc1cn(-c2cc(NC(=O)c3ccc(C)c(Nc4nccc(-c5cccnc5)n4)c3)cc(C(F)(F)F)c2)cn1 [Nilotinib]
How it was run: as §1

Luminespib = compound: CCNC(=O)c1noc(-c2cc(C(C)C)c(O)cc2O)c1-c1ccc(CN2CCOCC2)cc1 [Luminespib]
How it was run: as §1

Lenalidomide = compound: Nc1cccc2c1CN(C1CCC(=O)NC1=O)C2=O [Lenalidomide]
How it was run: as §1

MIM1 = compound: CC1=CSC(=NC2CCCCC2)N1/N=C/C3=C(C(=C(C=C3)O)O)O [MIM1]
How it was run: as §1

| Cell Line | relative viability (Saracatinib; 0.02 µM) | relative viability (Saracatinib; 0.2 µM) | relative viability (Saracatinib; 0.6325 µM) | relative viability (Saracatinib; 2 µM) | relative viability (Nilotinib; 0.001 µM) | relative viability (Nilotinib; 0.003162 µM) | relative viability (Nilotinib; 0.01 µM) | relative viability (Nilotinib; 0.03162 µM) | relative viability (Nilotinib; 0.1 µM) | relative viability (Luminespib; 0.002 µM) | relative viability (Luminespib; 0.006325 µM) | relative viability (Luminespib; 0.02 µM) | relative viability (Luminespib; 0.06325 µM) | relative viability (Luminespib; 0.2 µM) | relative viability (Lenalidomide; 0.253 µM) | relative viability (Lenalidomide; 0.8 µM) | relative viability (Lenalidomide; 2.53 µM) | relative viability (Lenalidomide; 8 µM) | relative viability (MIM1; 0.2 µM) | relative viability (MIM1; 0.6325 µM) | relative viability (MIM1; 2 µM) | relative viability (MIM1; 6.325 µM) | relative viability (MIM1; 20 µM) | relative viability (Luminespib; 0.01 µM, anchor plate) |
| --- | --- | --- | --- | --- | --- | --- | --- | --- | --- | --- | --- | --- | --- | --- | --- | --- | --- | --- | --- | --- | --- | --- | --- | --- |
| IA-LM | 0.983 | 0.848 | 1.46 | 1 | 0.835 | 0.793 | 1.07 | 0.789 | 0.909 | 1.06 | 0.884 | 0.678 | 0.0695 | 0.0432 | 0.985 | 0.859 | 1.05 | 0.942 | 0.976 | 0.935 | 0.896 | 0.345 | 0.157 |  |
| SW 900 | 0.97 | 0.658 | 0.878 | 0.694 | 0.748 | 0.939 | 1.07 | 0.639 | 0.611 | 0.945 | 0.732 | 0.474 | 0.138 | 0.132 | 0.809 |  | 1.03 | 0.598 | 0.915 | 0.947 | 0.782 | 0.502 | 0.158 | 0.18 |
| EBC-1 | 1.1 | 0.933 | 1.11 | 1.08 | 0.818 | 1.16 | 1.1 | 0.679 | 0.725 | 0.984 | 0.877 | 0.326 | 0.128 | 0.142 | 1.03 | 1.04 | 1.1 | 0.955 | 1.02 | 0.995 | 0.981 | 0.682 | 0.471 |  |
| NCI-H2347 | 0.983 | 0.903 | 1.09 | 1.06 | 0.97 | 1.14 | 1.13 | 0.841 | 0.793 | 1.02 | 0.721 | 0.911 | 0.722 | 0.318 | 1.03 | 1.13 | 1.17 | 0.9 | 1.1 | 0.972 | 1.09 | 0.757 | 0.478 | 0.421 |
| A549 | 1.04 | 0.81 | 1.09 | 0.898 | 0.948 | 1.21 | 1.1 | 0.739 | 0.665 | 1.04 | 0.923 | 0.432 | 0.085 | 0.0435 | 0.986 | 0.97 | 1.13 | 0.954 | 0.967 | 0.933 | 0.946 | 0.782 | 0.333 |  |
| NCI-H322M | 0.969 | 0.886 | 0.696 | 0.365 | 1.03 | 0.962 |  | 1.06 | 1.05 | 0.921 | 0.883 | 0.764 | 0.426 | 0.318 | 0.97 | 0.953 | 1.02 | 0.918 | 0.964 | 0.895 | 0.906 | 0.826 | 0.522 | 0.918 |
| NCI-H2087 | 1.11 | 0.873 | 1.11 | 1.01 | 0.813 | 0.981 | 0.992 | 0.443 | 0.299 | 1.07 | 0.894 | 0.625 | 0.143 | 0.122 | 1.03 | 0.892 | 1.14 | 0.888 | 1.03 | 0.943 | 1.03 | 0.696 | 0.583 | 0.192 |
| LCLC-97TM1 | 0.986 | 0.712 | 1.19 | 0.974 |  | 0.984 | 1.06 | 0.834 | 0.368 | 0.878 | 0.814 | 0.466 | 0.528 | 0.0858 | 0.943 | 0.932 | 1.05 | 0.616 | 1.02 | 0.767 | 0.703 | 0.456 | 0.144 | 0.77 |
| NCI-H1915 | 0.993 | 0.91 | 1.02 | 0.911 | 0.916 | 1.07 | 1.11 | 0.955 | 0.432 | 0.86 | 0.878 | 0.878 | 0.859 | 0.119 | 0.971 | 0.836 | 1.08 | 0.96 | 1.01 | 0.702 | 0.922 | 0.477 | 0.398 | 0.795 |
| NCI-H3122 | 0.969 | 0.717 | 0.845 | 0.803 | 1.03 | 1.21 | 1.23 | 0.971 | 0.956 | 1.05 | 0.958 | 0.627 | 0.507 | 0.117 | 0.999 | 1.04 | 1.01 | 1.06 | 0.979 | 1.04 | 1.01 | 0.551 | 0.257 | 0.0888 |
| NCI-H1703 | 0.93 | 0.772 | 0.448 | 0.326 | 0.795 | 0.684 | 0.538 | 0.286 |  | 1.12 | 0.899 | 0.708 | 0.134 | 0.14 | 0.991 | 0.923 | 1.01 | 0.904 | 0.897 | 1 | 0.878 | 0.205 | 0.133 |  |
| NCI-H460 | 0.998 | 0.82 | 0.976 | 0.877 | 0.924 | 1.21 | 1.12 | 0.78 | 0.857 | 1.02 | 0.952 | 0.806 | 0.0356 | 0.0297 | 0.984 | 0.956 | 1.04 | 1 | 0.988 | 0.994 | 0.827 | 0.45 | 0.124 | 0.0332 |
| SW 1573 | 0.931 | 0.785 | 0.877 | 0.729 | 0.906 | 1.2 | 1.12 | 0.737 | 0.66 | 1.04 | 0.976 | 0.595 | 0.108 | 0.107 | 0.914 | 1.01 | 1.08 | 0.925 | 1.1 | 0.966 | 0.976 | 0.763 | 0.488 | 0.217 |
| EPLC-272H | 0.974 | 0.881 | 1.09 | 0.786 | 0.894 | 0.94 | 0.92 | 0.676 | 0.37 | 0.82 | 0.887 | 0.557 | 0.496 | 0.123 | 1.11 | 0.741 | 1.07 | 0.754 | 0.969 | 0.888 | 0.934 | 0.593 | 0.162 | 0.301 |
